Values belong to the compound of their own block, whether it stands above or below them.
System: 743489-274-T-PDC complex spheroid growth
Assay: Anticancer human tumor 743489-274-T-PDC patient-derived renal cell carcinoma cell line growth inhibition [AhR]
Settings: for IC50: curve of first compound; for viability, T/C: stronger effect = lower value
In short: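 Agents were dosed in half-log steps down from roughly clinical Cmax, or from 10 microM where Cmax was unknown, alone and with AhR antagonists. Read-out: percent test/control growth of tumor spheroids containing HUVEC and MSC stromal cells.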

[1] = second compound 0.1 µM, first compound 0.0316 µM
[2] = second compound 0.1 µM, first compound 0.1 µM
[3] = second compound 0.1 µM, first compound 0.316 µM
[4] = second compound 0.1 µM, first compound 1 µM
[5] = second compound 0.1 µM, first compound 3.16 µM
[6] = second compound 0.1 µM, first compound 10 µM
[7] = second compound 0.316 µM, first compound 0.0316 µM
[8] = second compound 0.316 µM, first compound 0.1 µM
[9] = second compound 0.316 µM, first compound 0.316 µM
[10] = second compound 0.316 µM, first compound 1 µM
[11] = second compound 0.316 µM, first compound 3.16 µM
[12] = second compound 0.316 µM, first compound 10 µM
[13] = second compound 1 µM, first compound 0.0316 µM
[14] = second compound 1 µM, first compound 0.1 µM
[15] = second compound 1 µM, first compound 0.316 µM
[16] = second compound 1 µM, first compound 1 µM
[17] = second compound 1 µM, first compound 3.16 µM
[18] = second compound 1 µM, first compound 10 µM
[19] = second compound 3.16 µM, first compound 0.0316 µM
[20] = second compound 3.16 µM, first compound 0.1 µM
[21] = second compound 3.16 µM, first compound 0.316 µM
[22] = second compound 3.16 µM, first compound 1 µM
[23] = second compound 3.16 µM, first compound 3.16 µM
[24] = second compound 3.16 µM, first compound 10 µM
[25] = second compound 10 µM, first compound 0.0316 µM
[26] = second compound 10 µM, first compound 0.1 µM
[27] = second compound 10 µM, first compound 0.316 µM
[28] = second compound 10 µM, first compound 1 µM
[29] = second compound 10 µM, first compound 3.16 µM
[30] = second compound 10 µM, first compound 10 µM
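Also: spheroids exposed to agents for 7 days before readout.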
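For viability, T/C in this document: 100% = DMSO vehicle control wells.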

Structure (SMILES): CC1(C)CCC(CN2CCN(c3ccc(C(=O)NS(=O)(=O)c4ccc(NCC5CCOCC5)c([N+](=O)[O-])c4)c(Oc4cnc5[nH]ccc5c4)c3)CC2)=C(c2ccc(Cl)cc2)C1 + Cc1cncc(-c2nc(NCCc3c[nH]c4ccccc34)c3ncn(C(C)C)c3n2)c1
IC50 (second compound 0.1 µM): > 10 µM
IC50 (second compound 0.316 µM): > 10 µM
IC50 (second compound 1 µM): > 10 µM
IC50 (second compound 3.16 µM): > 10 µM
IC50 (second compound 10 µM): > 10 µM
viability, T/C [1]: 103%
viability, T/C [2]: 105%
viability, T/C [3]: 107%
viability, T/C [4]: 106%
viability, T/C [5]: 99.5%
viability, T/C [6]: 113%
viability, T/C [7]: 98.5%
viability, T/C [8]: 110%
viability, T/C [9]: 106%
viability, T/C [10]: 104%
viability, T/C [11]: 104%
viability, T/C [12]: 123%
viability, T/C [13]: 99.4%
viability, T/C [14]: 108%
viability, T/C [15]: 103%
viability, T/C [16]: 114%
viability, T/C [17]: 133%
viability, T/C [18]: 128%
viability, T/C [19]: 116%
viability, T/C [20]: 123%
viability, T/C [21]: 119%
viability, T/C [22]: 135%
viability, T/C [23]: 145%
viability, T/C [24]: 138%
viability, T/C [25]: 106%
viability, T/C [26]: 111%
viability, T/C [27]: 112%
viability, T/C [28]: 133%
viability, T/C [29]: 151%
viability, T/C [30]: 227%

Structure (SMILES): COc1cc(Nc2ncc3c(n2)-c2ccc(Cl)cc2C(c2c(F)cccc2OC)=NC3)ccc1C(=O)O + Cc1cncc(-c2nc(NCCc3c[nH]c4ccccc34)c3ncn(C(C)C)c3n2)c1
IC50 (second compound 0.1 µM): > 10 µM
IC50 (second compound 0.316 µM): > 10 µM
IC50 (second compound 1 µM): > 10 µM
IC50 (second compound 3.16 µM): > 10 µM
IC50 (second compound 10 µM): > 10 µM
viability, T/C [1]: 94.2%
viability, T/C [2]: 103%
viability, T/C [3]: 84.6%
viability, T/C [4]: 99.8%
viability, T/C [5]: 93.7%
viability, T/C [6]: 91.8%
viability, T/C [7]: 97.7%
viability, T/C [8]: 85%
viability, T/C [9]: 94%
viability, T/C [10]: 85.1%
viability, T/C [11]: 85%
viability, T/C [12]: 78.9%
viability, T/C [13]: 99%
viability, T/C [14]: 95.2%
viability, T/C [15]: 95.9%
viability, T/C [16]: 86%
viability, T/C [17]: 95.3%
viability, T/C [18]: 82.4%
viability, T/C [19]: 107%
viability, T/C [20]: 98%
viability, T/C [21]: 96.1%
viability, T/C [22]: 107%
viability, T/C [23]: 90.1%
viability, T/C [24]: 98.9%
viability, T/C [25]: 119%
viability, T/C [26]: 126%
viability, T/C [27]: 101%
viability, T/C [28]: 76.8%
viability, T/C [29]: 79.4%
viability, T/C [30]: 85.8%

Structure (SMILES): NS(=O)(=O)OCC1CC(n2ccc3c(NC4CCc5ccccc54)ncnc32)CC1O (stereo not given) + Cc1cncc(-c2nc(NCCc3c[nH]c4ccccc34)c3ncn(C(C)C)c3n2)c1
IC50 (second compound 0.1 µM): > 10 µM
IC50 (second compound 0.316 µM): > 10 µM
IC50 (second compound 1 µM): > 10 µM
IC50 (second compound 3.16 µM): > 10 µM
IC50 (second compound 10 µM): > 10 µM
viability, T/C [1]: 105%
viability, T/C [2]: 98.2%
viability, T/C [3]: 99.8%
viability, T/C [4]: 112%
viability, T/C [5]: 128%
viability, T/C [6]: 154%
viability, T/C [7]: 93.2%
viability, T/C [8]: 92.7%
viability, T/C [9]: 110%
viability, T/C [10]: 125%
viability, T/C [11]: 136%
viability, T/C [12]: 139%
viability, T/C [13]: 96.8%
viability, T/C [14]: 98.7%
viability, T/C [15]: 116%
viability, T/C [16]: 133%
viability, T/C [17]: 149%
viability, T/C [18]: 134%
viability, T/C [19]: 119%
viability, T/C [20]: 114%
viability, T/C [21]: 119%
viability, T/C [22]: 136%
viability, T/C [23]: 152%
viability, T/C [24]: 139%
viability, T/C [25]: 114%
viability, T/C [26]: 127%
viability, T/C [27]: 106%
viability, T/C [28]: 103%
viability, T/C [29]: 118%
viability, T/C [30]: 123%

The next lines start with results.

IC50 (second compound 0.1 µM): > 3 µM
IC50 (second compound 0.316 µM): > 3 µM
IC50 (second compound 1 µM): > 3 µM
IC50 (second compound 3.16 µM): > 3 µM
IC50 (second compound 10 µM): > 3 µM
Structure (SMILES): CCN(c1cc(-c2ccc(CN3CCOCC3)cc2)cc(C(=O)NCc2c(C)cc(C)[nH]c2=O)c1C)C1CCOCC1 + Cc1cncc(-c2nc(NCCc3c[nH]c4ccccc34)c3ncn(C(C)C)c3n2)c1
viability, T/C (second compound 0.1 µM, first compound 0.00949 µM): 102%
viability, T/C (second compound 0.1 µM, first compound 0.03 µM): 102%
viability, T/C (second compound 0.1 µM, first compound 0.0949 µM): 99.9%
viability, T/C (second compound 0.1 µM, first compound 0.3 µM): 91.3%
viability, T/C (second compound 0.1 µM, first compound 0.949 µM): 92.7%
viability, T/C (second compound 0.1 µM, first compound 3 µM): 94.4%
viability, T/C (second compound 0.316 µM, first compound 0.00949 µM): 94.8%
viability, T/C (second compound 0.316 µM, first compound 0.03 µM): 104%
viability, T/C (second compound 0.316 µM, first compound 0.0949 µM): 93.1%
viability, T/C (second compound 0.316 µM, first compound 0.3 µM): 88.1%
viability, T/C (second compound 0.316 µM, first compound 0.949 µM): 85.9%
viability, T/C (second compound 0.316 µM, first compound 3 µM): 94%
viability, T/C (second compound 1 µM, first compound 0.00949 µM): 99.8%
viability, T/C (second compound 1 µM, first compound 0.03 µM): 97.6%
viability, T/C (second compound 1 µM, first compound 0.0949 µM): 95.3%
viability, T/C (second compound 1 µM, first compound 0.3 µM): 93%
viability, T/C (second compound 1 µM, first compound 0.949 µM): 104%
viability, T/C (second compound 1 µM, first compound 3 µM): 101%
viability, T/C (second compound 3.16 µM, first compound 0.00949 µM): 105%
viability, T/C (second compound 3.16 µM, first compound 0.03 µM): 114%
viability, T/C (second compound 3.16 µM, first compound 0.0949 µM): 102%
viability, T/C (second compound 3.16 µM, first compound 0.3 µM): 104%
viability, T/C (second compound 3.16 µM, first compound 0.949 µM): 102%
viability, T/C (second compound 3.16 µM, first compound 3 µM): 103%
viability, T/C (second compound 10 µM, first compound 0.00949 µM): 122%
viability, T/C (second compound 10 µM, first compound 0.03 µM): 119%
viability, T/C (second compound 10 µM, first compound 0.0949 µM): 122%
viability, T/C (second compound 10 µM, first compound 0.3 µM): 128%
viability, T/C (second compound 10 µM, first compound 0.949 µM): 127%
viability, T/C (second compound 10 µM, first compound 3 µM): 122%

IC50 (second compound 0.1 µM): > 0.1 µM
IC50 (second compound 0.316 µM): > 0.1 µM
IC50 (second compound 1 µM): > 0.1 µM
IC50 (second compound 3.16 µM): > 0.1 µM
IC50 (second compound 10 µM): > 0.1 µM
Structure (SMILES): Cn1ncnc1C1c2n[nH]c(=O)c3cc(F)cc(c23)NC1c1ccc(F)cc1 (stereo not given) + Cc1cncc(-c2nc(NCCc3c[nH]c4ccccc34)c3ncn(C(C)C)c3n2)c1
viability, T/C (second compound 0.1 µM, first compound 0.000316 µM): 95.5%
viability, T/C (second compound 0.1 µM, first compound 0.001 µM): 104%
viability, T/C (second compound 0.1 µM, first compound 0.00316 µM): 90.8%
viability, T/C (second compound 0.1 µM, first compound 0.01 µM): 87.9%
viability, T/C [1]: 89.6%
viability, T/C [2]: 98.8%
viability, T/C (second compound 0.316 µM, first compound 0.000316 µM): 88.8%
viability, T/C (second compound 0.316 µM, first compound 0.001 µM): 91.8%
viability, T/C (second compound 0.316 µM, first compound 0.00316 µM): 96.1%
viability, T/C (second compound 0.316 µM, first compound 0.01 µM): 96.2%
viability, T/C [7]: 93.3%
viability, T/C [8]: 95.7%
viability, T/C (second compound 1 µM, first compound 0.000316 µM): 103%
viability, T/C (second compound 1 µM, first compound 0.001 µM): 96%
viability, T/C (second compound 1 µM, first compound 0.00316 µM): 97%
viability, T/C (second compound 1 µM, first compound 0.01 µM): 101%
viability, T/C [13]: 96.7%
viability, T/C [14]: 88.2%
viability, T/C (second compound 3.16 µM, first compound 0.000316 µM): 121%
viability, T/C (second compound 3.16 µM, first compound 0.001 µM): 102%
viability, T/C (second compound 3.16 µM, first compound 0.00316 µM): 99.2%
viability, T/C (second compound 3.16 µM, first compound 0.01 µM): 114%
viability, T/C [19]: 99.3%
viability, T/C [20]: 94.5%
viability, T/C (second compound 10 µM, first compound 0.000316 µM): 128%
viability, T/C (second compound 10 µM, first compound 0.001 µM): 117%
viability, T/C (second compound 10 µM, first compound 0.00316 µM): 139%
viability, T/C (second compound 10 µM, first compound 0.01 µM): 121%
viability, T/C [25]: 111%
viability, T/C [26]: 131%
